Results from paper PMC11747885, “Potent inhibitors of the human RNA ligase Rlig1 highlights its role in RNA integrity maintenance under oxidative cellular stress” (Chemical Science, 2025).
Values joined by “and” are separate entries in the source; they are usually repeats but may differ in a detail not shown here. Identical values can stand only once. Like-named read-outs stand apart in the source and are kept apart here.

Assays:
Rlig1-AMP = target: T1, Rlig1-AMP (Homo sapiens, UniProt Q8N999); assay: FRET-based high-throughput screening of inhibitors for Rlig1-AMP; type: biochemical; conditions: for Raw data [w Enyzm]: with enzyme; for Raw data [w/o Enzym]: without enzyme
T1 construct: made in house; host or cells: E. coli BL21 (DE3), pET15b-Rlig1

[1] = target: ATPase family AAA domain-containing protein 2 (ATAD2); design: method as in MedChemExpress; conditions: ref MedChemExpress; cited from earlier work
[2] = ref MedChemExpress, cited from earlier work
LTB4 receptor = target: LTB4 receptor; design: method as in MedChemExpress [1]; conditions: isolated human neutrophil cell membranes; ref MedChemExpress [1]; cited from earlier work
Pim-1 = test system: Pim-1; design: method as in MedChemExpress; conditions: ref MedChemExpress; cited from earlier work
Pim-2 = test system: Pim-2; design: method as in MedChemExpress; conditions: ref MedChemExpress; cited from earlier work
Pim-3 = test system: Pim-3; design: method as in MedChemExpress; conditions: ref MedChemExpress; cited from earlier work
[3] = target: human DNA topoisomerase I; design: method as in MedChemExpress; conditions: ref MedChemExpress; cited from earlier work
NLRP3 inflammasome = test system: NLRP3 inflammasome; design: method as in MedChemExpress; conditions: ref MedChemExpress; cited from earlier work
wild-type h5-HT1B = target: wild-type h5-HT1B; design: method as in MedChemExpress; conditions: ref MedChemExpress; cited from earlier work
wild-type h5-HT1D = target: wild-type h5-HT1D; design: method as in MedChemExpress; conditions: ref MedChemExpress; cited from earlier work
JNK1 = test system: JNK1; design: method as in MedChemExpress; conditions: ref MedChemExpress; cited from earlier work
JNK2 = test system: JNK2; design: method as in MedChemExpress; conditions: ref MedChemExpress; cited from earlier work
JNK3 = test system: JNK3; design: method as in MedChemExpress; conditions: ref MedChemExpress; cited from earlier work
CXXC5-DVL = test system: CXXC5-DVL; design: method as in MedChemExpress; conditions: ref MedChemExpress; cited from earlier work
GSK3β = test system: GSK3β; design: method as in MedChemExpress; conditions: ref MedChemExpress; cited from earlier work
[4] = DMSO; ref MedChemExpress; cited from earlier work
MAGL = test system: MAGL; design: method as in MedChemExpress; conditions: ref MedChemExpress; cited from earlier work
[5] = test system: human p53 and CREB binding protein association; design: method as in MedChemExpress; conditions: at 50 μM; ref MedChemExpress; cited from earlier work
DPP-4 = test system: DPP-4; design: method as in MedChemExpress [1]; conditions: ref MedChemExpress [1]; cited from earlier work
all proteases tested = test system: all proteases tested; design: method as in MedChemExpress; conditions: selectivity; ref MedChemExpress; cited from earlier work
IKr, Cav1.2, and Nav1.5 = test system: IKr, Cav1.2, and Nav1.5; design: method as in MedChemExpress; conditions: ion channel activity; ref MedChemExpress; cited from earlier work
[6] = target: 168 radioligand binding or enzymatic assays; design: method as in MedChemExpress; conditions: MDS Pharma, ref MedChemExpress, read-out: IC50 in all counterscreen assays; cited from earlier work
[7] = design: method as in MedChemExpress; conditions: OGTT, oral 1 h prior to dextrose challenge, ref MedChemExpress, cited from earlier work
[8] = in DMSO; ref MedChemExpress; cited from earlier work
DNA synthesis = test system: DNA synthesis; design: method as in MedChemExpress; conditions: ref MedChemExpress; cited from earlier work
RNA synthesis = test system: RNA synthesis; design: method as in MedChemExpress; conditions: ref MedChemExpress; cited from earlier work
TMEM16A chloride channel = test system: TMEM16A chloride channel; design: method as in MedChemExpress; conditions: ref MedChemExpress; cited from earlier work
EBOV Zaire = conditions: ref MedChemExpress [1][2]; read-out: IC50 infectious EBOV Zaire; cited from earlier work
Marburg (MARV) = conditions: ref MedChemExpress [1][2]; cited from earlier work
hERG channel = test system: hERG channel; design: method as in MedChemExpress; conditions: ref MedChemExpress; cited from earlier work
[9] = HTS hits, difference of raw data w/o and w enzyme
[10] = sheet HTS hits, MedChemExpress library
[11] = sheet HTS hits, difference of raw data w/o and w enzyme
[12] = HTS hits, MedChemExpress library
[13] = HTS hits, difference of raw data without and with enzyme

T1 sequence (Q8N999 whole entry): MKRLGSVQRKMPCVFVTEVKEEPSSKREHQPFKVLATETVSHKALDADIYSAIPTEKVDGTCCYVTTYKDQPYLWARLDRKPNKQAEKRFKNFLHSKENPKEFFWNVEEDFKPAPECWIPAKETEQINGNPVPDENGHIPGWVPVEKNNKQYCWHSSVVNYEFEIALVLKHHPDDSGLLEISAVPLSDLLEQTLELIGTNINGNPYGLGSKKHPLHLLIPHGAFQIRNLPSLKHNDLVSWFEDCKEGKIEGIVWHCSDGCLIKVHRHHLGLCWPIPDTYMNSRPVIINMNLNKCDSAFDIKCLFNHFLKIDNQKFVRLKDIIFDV

For `COc1cc(Cl)c(C(=O)N[C@@H](CN[C@H]2CC[C@@H](N)CC2)Cc2ccc(C#N)cc2)cc1-c1ccc(CN[C@H](C)c2ccc(C)cc2)o1` [BAY-850], the “1-D Distance” value (Rlig1-AMP; [9]) was 2218, the “Raw data [w Enyzm]” value (Rlig1-AMP; HTS hits) was 10576 and the “Raw data [w/o Enzym]” value (Rlig1-AMP; HTS hits) was 12794. For the same compound, the IC50 [1] was 166 nM, the solubility ([2]; DMSO) was 62.5 mg/mL and 95.53 mM and the solubility ([2]; H2O) was < 0.1 mg/mL.
In the case of `CC(C)(c1ccc(O)cc1)c1ccc(OCc2cccc(COc3ccc(C(=N)N)cc3)c2)cc1.Cl` [BIIL-260 (hydrochloride)], the “1-D Distance.npi” value (Rlig1-AMP; [10]) is reported as 102.737, the “1-D Distance” value (Rlig1-AMP; [11]) is reported as 216 and the “Raw data [w Enyzm]” value (Rlig1-AMP; sheet HTS hits) is reported as 4623. The “Raw data [w/o Enzym]” value (Rlig1-AMP; sheet HTS hits) was 4407 and the Ki (LTB4 receptor) was 1.7 nM.
In the case of `CN1CCCN(C(=O)c2cccc(-c3ccc(/C=C4/C(=O)Nc5ccc(Cl)cc54)o3)c2)CC1.Cl` [CX-6258 (hydrochloride)], the “1-D Distance.npi” value (Rlig1-AMP; [12]) is reported as 75.5915, the “1-D Distance” value (Rlig1-AMP; [13]) is reported as 1601 and the “Raw data [w Enyzm]” value (Rlig1-AMP; HTS hits) is reported as 4989. For the same compound, the “Raw data [w/o Enzym]” value (Rlig1-AMP; HTS hits) was 6590, the IC50 (Pim-1) was […] and the IC50 (Pim-2) was 25 nM. The IC50 (Pim-3) was 16 nM.
In the case of `COc1cccc2c1C(=O)c1c(O)c3c(c(O)c1C2=O)C[C@@](O)(C(=O)CO)C[C@@H]3O[C@H]1C[C@H](N)[C@H](O)[C@H](C)O1.Cl` [Doxorubicin (hydrochloride)], the “1-D Distance.npi” value (Rlig1-AMP; [12]) is reported as 103.376, the “1-D Distance” value (Rlig1-AMP; [13]) is reported as 134 and the “Raw data [w Enyzm]” value (Rlig1-AMP; HTS hits) is reported as 1247. For the same compound, the IC50 [3] was 800 nM.
In the case of `CC(C)n1ccc(S(=O)(=O)NC(=O)Nc2c3c(cc4c2CCC4)CCC3)n1` [Emlenoflast (sodium)], the “1-D Distance.npi” value (Rlig1-AMP; [12]) is reported as 80.6711, the “1-D Distance” value (Rlig1-AMP; [13]) is reported as 1207 and the “Raw data [w Enyzm]” value (Rlig1-AMP; HTS hits) is reported as 9218. For the same compound, the “Raw data [w/o Enzym]” value (Rlig1-AMP; HTS hits) was 10425 and the IC50 (NLRP3 inflammasome) was < 100 nM.
For `COc1ccc(NC(=O)c2ccc(-c3ccncc3)c(C)c2)cc1N1CCN(C)CC1` [GR 125743], the “1-D Distance” value (Rlig1-AMP; [9]) was 1429, the “Raw data [w Enyzm]” value (Rlig1-AMP; HTS hits) was 8833 and the “Raw data [w/o Enzym]” value (Rlig1-AMP; HTS hits) was 10262. For the same compound, the pKi (wild-type h5-HT1B) was 8.85, the pKi (wild-type h5-HT1D) was 8.31 and the solubility ([2]; DMSO) was 100 mg/mL and 240.08 mM.
In the case of `O=C1Nc2ccccc2/C1=C1/Nc2ccccc2/C1=N\O` [Indirubin-3′-oxime], the “1-D Distance.npi” value (Rlig1-AMP; [12]) is reported as 72.577, the “1-D Distance” value (Rlig1-AMP; [13]) is reported as 1766 and the “Raw data [w Enyzm]” value (Rlig1-AMP; HTS hits) is reported as 1847. For the same compound, the “Raw data [w/o Enzym]” value (Rlig1-AMP; HTS hits) was 3613, the IC50 (JNK1) was 800 nM and the IC50 (JNK2) was 1400 nM. For the same compound, the IC50 (JNK3) was 1000 nM.
With `CON=C1C(=C2C(=O)Nc3cc(Cl)c(Cl)cc32)Nc2ccccc21` [KY19382] the “1-D Distance.npi” value (Rlig1-AMP; [12]) was 101.229, the “1-D Distance” value (Rlig1-AMP; [13]) was 138 and the “Raw data [w Enyzm]” value (Rlig1-AMP; HTS hits) was 6054. For the same compound, the “Raw data [w/o Enzym]” value (Rlig1-AMP; HTS hits) was 6192, the IC50 (CXXC5-DVL) was 19 nM and the IC50 (GSK3β) was 10 nM. The solubility [4] was 5 mg/mL and 13.88 mM.
With `CC(C)c1ccc(C(=O)C2CCN(C(=O)c3cc(O)ccc3F)CC2)cc1` [MAGL-IN-1] the “1-D Distance.npi” value (Rlig1-AMP; [12]) was 70.8371, the “1-D Distance” value (Rlig1-AMP; [13]) was 1819 and the “Raw data [w Enyzm]” value (Rlig1-AMP; HTS hits) was 9200. For the same compound, the “Raw data [w/o Enzym]” value (Rlig1-AMP; HTS hits) was 11019 and the IC50 (MAGL) was 80 nM.
For `CC(=O)n1c2c(c3ccccc31)CCCC2=O` [MS7972], the “1-D Distance” value (Rlig1-AMP; [9]) was 1206, the “1-D Distance.npi” value (Rlig1-AMP; HTS hits, normalized value (npi)) was 81.4632 and the “Raw data [w Enyzm]” value (Rlig1-AMP; HTS hits) was 8943. For the same compound, the “Raw data [w/o Enzym]” value (Rlig1-AMP; HTS hits) was 10149 and the “block of BRD interaction” value [5] was “MS7972 is a small molecule that blocks human p53 and CREB binding protein association. MS7972 can almost completely block this BRD interaction at 50 μM[1]”.
In the case of `CS(=O)(=O)n1cc2c(n1)CN([C@H]1CO[C@H](c3cc(F)ccc3F)[C@@H](N)C1)C2` [Omarigliptin], the “1-D Distance” value (Rlig1-AMP; [11]) is reported as 1732, the “Raw data [w Enyzm]” value (Rlig1-AMP; sheet HTS hits) is reported as 9138 and the “Raw data [w/o Enzym]” value (Rlig1-AMP; sheet HTS hits) is reported as 10870. For the same compound, the IC50 (DPP-4) was 1.6 nM, the IC50 (all proteases tested) was > 67000 nM and the IC50 (IKr, Cav1.2, and Nav1.5) was > 30000 nM. The IC50 [6] was > 10000 nM, the “reduction in glucose AUC” value ([7]; 0.01 mg/kg) was 7% and the “reduction in glucose AUC” value ([7]; 0.3 mg/kg) was 51%. For the same compound, the “solubility, DMSO” value [8] was “DMSO : 50 mg/mL (125.49 mM; Need ultrasonic)”.
With `CCc1c2c(nc3ccc(O)cc13)-c1cc3c(c(=O)n1C2)COC(=O)[C@]3(O)CC` [SN-38] the “1-D Distance.npi” value (Rlig1-AMP; [12]) was 72.669, the “1-D Distance” value (Rlig1-AMP; [13]) was 1812 and the “Raw data [w Enyzm]” value (Rlig1-AMP; HTS hits) was 9411. The “Raw data [w/o Enzym]” value (Rlig1-AMP; HTS hits) was 11223, the IC50 (DNA synthesis) was 77 nM and the IC50 (RNA synthesis) was 1300 nM. The solubility [4] was 50 mg/mL and 127.42 mM.
In the case of `CC(C)=CC[C@@H](O)C1=CC(=O)c2c(O)ccc(O)c2C1=O` [Shikonin], the “1-D Distance” value (Rlig1-AMP; [13]) is listed as 1574, the “Raw data [w Enyzm]” value (Rlig1-AMP; HTS hits) is listed as 3611 and the IC50 (TMEM16A chloride channel) is listed as 6500 nM.
In the case of `CN(C)CCOc1ccc(/C(=C(/CCCl)c2ccccc2)c2ccccc2)cc1.O=C(O)CC(O)(CC(=O)O)C(=O)O` [Toremifene (citrate)], the “1-D Distance.npi” value (Rlig1-AMP; [10]) is reported as 77.3877, the “1-D Distance” value (Rlig1-AMP; [11]) is reported as 1366 and the “Raw data [w Enyzm]” value (Rlig1-AMP; sheet HTS hits) is reported as 9443. The IC50 (EBOV Zaire) was 70 nM and the IC50 (Marburg (MARV)) was 2600 nM.
With Tannic acid the “1-D Distance.npi” value (Rlig1-AMP; [12]) was 92.4189, the “1-D Distance” value (Rlig1-AMP; [13]) was 691 and the “Raw data [w Enyzm]” value (Rlig1-AMP; HTS hits) was 13343. For the same compound, the “Raw data [w/o Enzym]” value (Rlig1-AMP; HTS hits) was 14034 and the IC50 (hERG channel) was 3400 nM.
